Results as given in patent US20040147788A1, “Stilbene derivatives and their use as aryl hydrocarbon receptor antagonistic ligands” (priority 2002, published 2004).

Legend:
[1] = target: T1, Estrogen Receptors extracted from MCF-7 cells (Homo sapiens, UniProt P03372); assay: Ligand binding competition assay (Estrogen Receptor), [3H]Estradiol
T1 construct: Estrogen Receptors extracted from MCF-7 cells; endogenous in cells; host or cells: MCF-7 (ATCC) cytosol
T1 sequence (P03372 1-595): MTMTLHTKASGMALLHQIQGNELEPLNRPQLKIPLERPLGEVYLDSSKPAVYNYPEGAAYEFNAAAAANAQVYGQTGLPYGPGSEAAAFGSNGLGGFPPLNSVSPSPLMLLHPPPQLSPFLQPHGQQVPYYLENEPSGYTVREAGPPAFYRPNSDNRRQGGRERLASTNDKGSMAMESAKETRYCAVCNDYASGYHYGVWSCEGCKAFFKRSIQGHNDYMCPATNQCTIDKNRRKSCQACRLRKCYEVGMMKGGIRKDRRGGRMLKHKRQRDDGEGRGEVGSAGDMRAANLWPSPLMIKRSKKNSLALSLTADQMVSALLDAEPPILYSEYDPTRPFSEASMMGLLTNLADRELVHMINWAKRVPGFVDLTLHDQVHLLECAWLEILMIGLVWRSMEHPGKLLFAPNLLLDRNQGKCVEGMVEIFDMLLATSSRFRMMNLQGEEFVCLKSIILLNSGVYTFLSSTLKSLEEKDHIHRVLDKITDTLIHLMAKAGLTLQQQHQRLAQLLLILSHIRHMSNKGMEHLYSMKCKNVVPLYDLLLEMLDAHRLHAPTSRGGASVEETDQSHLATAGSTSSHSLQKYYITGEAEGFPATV
Description: Ligand Binding Competition Assay (Estrogen Receptor)
ER binding experiments were conducted using Estrogen Receptors extracted from MCF-7 cells as previously described (4). Briefly MCF-7 (from ATCC) were grown to 80% confluency in DMEM medium (GiBCO BRL) suplemented with 10% FCS. Cells were then scraped, and washed twice with PBS. After centrifugation for 10 minutes at 1500 rpm, the cells were resuspended in TM buffer (20 mM Tris, HCl pH 7.4; sodium molybdate, 20 mM). Cells were broken by freeze-thaw lysis of the cell pellets in an equal volume of TM buffer. Cytosolic receptors were prepared by a 105.000 g×60 minutes centrifugation at 0° C., and then stored at −80° C. This cytosolic receptor solution was diluted to 60% in TM buffer, and then incubated with the corresponding ligand for 18 hr at 4° C. in a volume of 100 μl with 50 μg of protein and 2 nM of [3H]Estradiol and two concentrations (1 and 10 μM) of unlabeled test ligand. Assays were terminated by loading 65 μl of the incubate on a 1.2 ml Sephadex TM LH-20 column equilibrated with the TM buffer. The flow through was collected and counted for radioactivity in ready safe scintillant (Beckman).

[2] = target: T2, Aryl Hydrocarbon Receptor (AhR) (Oryctolagus cuniculus, UniProt O02747); assay: Ligand binding competition assay (Aryl Hydrocarbon Receptor), [3H]TCDD displacement; set-up: species or system female New Zealand rabbit (liver cytosol); settings: for AhR RBA (relative binding affinity): resveratrol = 1
T2 construct: from tissue; host or cells: female New Zealand rabbit liver cytosol
T2 sequence (O02747 1-847): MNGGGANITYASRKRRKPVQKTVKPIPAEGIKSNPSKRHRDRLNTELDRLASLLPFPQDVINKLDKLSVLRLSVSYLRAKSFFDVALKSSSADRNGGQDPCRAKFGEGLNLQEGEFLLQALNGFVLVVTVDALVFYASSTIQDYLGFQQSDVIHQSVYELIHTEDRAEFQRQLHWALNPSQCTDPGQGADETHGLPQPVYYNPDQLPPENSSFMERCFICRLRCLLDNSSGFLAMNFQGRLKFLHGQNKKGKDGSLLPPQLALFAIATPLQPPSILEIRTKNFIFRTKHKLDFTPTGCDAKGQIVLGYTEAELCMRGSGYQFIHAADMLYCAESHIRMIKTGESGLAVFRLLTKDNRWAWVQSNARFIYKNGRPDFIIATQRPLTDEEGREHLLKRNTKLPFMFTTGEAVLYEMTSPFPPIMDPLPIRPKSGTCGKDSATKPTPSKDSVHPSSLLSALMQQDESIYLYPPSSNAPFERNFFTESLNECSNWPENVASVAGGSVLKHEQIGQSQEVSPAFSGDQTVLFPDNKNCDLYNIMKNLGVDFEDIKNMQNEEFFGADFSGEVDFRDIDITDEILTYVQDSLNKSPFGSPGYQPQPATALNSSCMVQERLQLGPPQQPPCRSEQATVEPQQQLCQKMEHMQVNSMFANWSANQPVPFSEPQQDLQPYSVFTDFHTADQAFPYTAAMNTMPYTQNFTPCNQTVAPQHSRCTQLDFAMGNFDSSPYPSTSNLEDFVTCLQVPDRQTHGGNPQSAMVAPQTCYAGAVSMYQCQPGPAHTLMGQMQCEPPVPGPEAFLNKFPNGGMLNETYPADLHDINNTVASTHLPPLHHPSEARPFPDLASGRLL
Description: Ligand binding competition assay (Aryl Hydrocarbon Receptor)
Experiments were conducted exactly as previously described by Savouret et al., (3). Briefly, binding competition was performed using female New Zealand rabbit liver cytosol as the receptor source. The cytosol was prepared at 4° C. in Hepes 20 mM pH 7.6, EDTA 1.5 mM, glycerol 10%, β-mercapto-ethanol 10 mM, with Complete protease cocktail (Roche, Meylan, France) by homogenisation in a Ultra-Turax homogenizer (Bioblock Scientific, Illkirch, France) followed with 20 strokes in a Dounce Homogenizer with the tight pestle. The homogenate was centrifuged 30 min at 20,000 g. The supernatant was centrifuged at 105,000 g for 65 min. The cytosol was aliquoted, snap-frozen in liquid nitrogen and kept at −80° C. Cytosol aliquotes (4.5 ml) were thawed on ice, diluted ten-fold in Hepes 20 mM pH 7.6, 5 mM CaCl2, containing Complete protease cocktail and 10 mM mercapto-ethanol, and recentrifuged 30 min. at 105,000 g. The cleared cytosol dilution was adjusted to 0.85 mg proteins/ml. 930 μl of diluted cytosol were preincubated with the desired amounts of unlabeled competitors in ethanol solutions for 1 hour at 4° C. Subsequently, 2,3,7,8-tetrachloro (1,6-3 H) dibenzo-p-dioxin (28 Ci/mmole) was added at 0.2 nM and incubation continued for 3 hours at 4° C. Non-displaceable binding was assessed by incubating the aliquotes with 70 μl of a 2% activated charcoal suspension in Hepes 20 mM pH 7.6 for 90 minutes at 4° C., followed by centrifugation at 15,000 g for 10 minutes. 500 μl of the supernatants were counted in 5 ml of Ultima Gold cocktail (Packard, Meridien, Conn.) in a Beckman liquid scintillation Counter (45% counting efficiency). Binding competition assays were repeated at least twice for each competitor and each point was performed in triplicate.

SMILES	ER RBA (relative binding affinity) ([1]; trans-stilbenes)	AhR RBA (relative binding affinity) ([2]; trans-stilbenes)	ER RBA (relative binding affinity) ([1]; cis-stilbenes)	AhR RBA (relative binding affinity) ([2]; cis-stilbenes)	affinity for ER [1]	relative binding affinity (RBA) for AhR [2]
COc1ccc(/C=C/c2cc(OC)cc(OC)c2)cc1 [Compound 4a, (E)-1-(4-methoxyphenyl)-2-(3,5-dimethoxyphenyl)-ethene]	0.03	21.0				
COc1ccc(/C=C/c2cc(F)cc(F)c2)cc1 [Compound 4c, (E)-1-(4-methoxyphenyl)-2-(3,5-difluorophenyl)-ethene]	N.M	17.5				
COc1ccc(/C=C\c2cc(F)cc(F)c2)cc1 [Compound 5c, (Z)-1-(4-methoxyphenyl)-2-(3,5-difluorophenyl)-ethene]			N.M	7.2		
Fc1ccc(/C=C/c2cc(F)cc(F)c2)cc1 [Compound 4d, (E)-1-(4-fluorophenyl)-2-(3,5-difluorophenyl)-ethene]	N.M	39.1				
FC(F)(F)c1ccc(/C=C/c2cc(C(F)(F)F)cc(C(F)(F)F)c2)cc1 [Compound 4e, (E)-1-(4-trifluoromethylphenyl)-2-(3,5-ditrifluoromethylphenyl)-ethene]	N.M	52.1			without detectable affinity	52.1
CCOc1ccc(/C=C\c2cc(OC)cc(OC)c2)cc1 [Compound 5g, (Z)-1-(4-ethoxyphenyl)-2-(3,5-dimethoxyphenyl)-ethene]			N.M	2.5		
COc1cc(/C=C\c2ccc(F)cc2)cc(OC)c1 [Compound 5f, (Z)-1-(4-fluorophenyl)-2-(3,5-dimethoxyphenyl)-ethene]			N.M	1.7		
FC(F)(F)c1ccc(/C=C/c2cc(Cl)cc(Cl)c2)cc1 [Compound 4i, (E)-1-(4-trifluoromethylphenyl)-2-(3,5-dichlorophenyl)-ethene]	N.M	791.0				
COc1cc(/C=C/c2ccc(F)cc2)cc(OC)c1 [Compound 4f, (E)-1-(4-fluorophenyl)-2-(3,5-dimethoxyphenyl)-ethene]	N.M	32.1				
FC(F)(F)c1ccc(/C=C\c2cc(Cl)cc(Cl)c2)cc1 [Compound 5i, (Z)-1-(4-trifluoromethylphenyl)-2-(3,5-dichlorophenyl)-ethene]			N.M	10.9		
CCCCOc1ccc(/C=C/c2cc(OC)cc(OC)c2)cc1 [Compound 4h, (E)-1-(4-butoxyphenyl)-2-(3,5-dimethoxyphenyl)-ethene]	N.M	8.1				
COc1ccc(/C=C\c2cc(Cl)cc(Cl)c2)cc1 [Compound 5j, (Z)-1-(4-methoxyphenyl)-2-(3,5-dichlorophenyl)-ethene]			N.M	13.0		
CCOc1ccc(/C=C/c2cc(OC)cc(OC)c2)cc1 [Compound 4g, (E)-1-(4-ethoxyphenyl)-2-(3,5-dimethoxyphenyl)-ethene]	N.M	39.8				
COc1ccc(/C=C\c2cc(OC)cc(OC)c2)cc1 [Compound 5a, (Z)-1-(4-methoxyphenyl)-2-(3,5-dimethoxyphenyl)-ethene]			0.06	2.1		
FC(F)(F)c1ccc(/C=C\c2cc(C(F)(F)F)cc(C(F)(F)F)c2)cc1 [Compound 5e, (Z)-1-(4-trifluoromethylphenyl)-2-(3,5-ditrifluoromethylphenyl)-ethene]			N.M	2.7		
Clc1ccc(/C=C\c2cc(Cl)cc(Cl)c2)cc1 [Compound 5b, (Z)-1-(4-chlorophenyl)-2-(3,5-dichlorophenyl)-ethene]			N.M	12.4		
CCCCOc1ccc(/C=C\c2cc(OC)cc(OC)c2)cc1 [Compound 5h, (Z)-1-(4-butoxyphenyl)-2-(3,5-dimethoxyphenyl)-ethene]			N.M	3.7		
COc1ccc(/C=C/c2cc(Cl)cc(Cl)c2)cc1 [Compound 4j, (E)-1-(4-methoxyphenyl)-2-(3,5-dichlorophenyl)-ethene]	N.M	112.0			without detectable affinity	112.0
Clc1ccc(/C=C/c2cc(Cl)cc(Cl)c2)cc1 [Compound 4b, (E)-1-(4-chlorophenyl)-2-(3,5-dichlorophenyl)-ethene]	N.M	130.0			without detectable affinity	130.0
Fc1ccc(/C=C\c2cc(F)cc(F)c2)cc1 [Compound 5d, (Z)-1-(4-fluorophenyl)-2-(3,5-difluorophenyl)-ethene]			N.M	2.6		
